For the data set the following is noted: Liquid; for mass density: 298.15 K, 101.33 kPa, Vibrating tube method; for Normal boiling temperature: Ebulliometric method (Recirculating still).

± gives the expanded uncertainty stated by the source.

The term mass density denotes the mass of a sample divided by its volume.

As for `CCO` [ethanol], the mass density was found to be 785.27 ± 0.15 kg/m3 and the Normal boiling temperature was 78.2 ± 0.4 °C.

`CC12CCC(CC1)C(C)(C)O2` [1,3,3-trimethyl-2-oxabicyclo[2.2.2]octane]: the mass density was found to be 920.68 ± 0.12 kg/m3 and the Normal boiling temperature was 176.1 ± 0.4 °C.
